18 compounds from patent publication US20220175754A1, “P97 INHIBITORS FOR TREATING CANCER AND NEURODEGENERATIVE DISORDERS” (Lundquist Institute for Biomedical Innovation at …, priority 2018, published 2022) can be followed below.

pIC50: −log10 of the molar value. Where two headings read alike, the source gives them in different places.

One assay concerns the target P97 (Homo sapiens, UniProt P55072). Put plainly: P97 Biomolgreen ATPase assay, 200 μM ATP. It counts as biochemical. An excerpt: The following Table IV provides relevant results. The compound number in Table IV correlates to the numbered compounds in Table III.
The subject of a further assay is BxPC-3. Put plainly: Anti-proliferative activity, BxPC-3. The assay is classed as cell-based. The settings on record: Homo sapiens, Pancreatic cancers, read-out: Anti-proliferative activity (μM) of NMS-873.
The next assay has as its system SKMel2 (NRASQ61R). Put plainly: Anti-proliferative activity, SKMel2. It counts as cell-based. The settings on record: Homo sapiens, SK-MEL-2, skin cancer, read-out: Anti-proliferative activity (μM) of NMS-873.
The test system of a further assay is HCT15. As to the kind of experiment: Anti-proliferative activity, HCT15. It counts as cell-based. The settings on record: Homo sapiens, HCT-15, Colon, read-out: Anti-proliferative activity (μM) of NMS-873.
In another assay the test system is SKMel5 (BRAFV600E). Put plainly: Anti-proliferative activity, SKMel5. The settings on record: Homo sapiens, SK-MEL-5, skin cancer, read-out: Anti-proliferative activity (μM) of NMS-873. The assay is classed as cell-based.
For the next assay, the system named is WM3918 (BRAF/NRAS WT). Put plainly: Anti-proliferative activity, WM3918. The settings on record: skin cancer, read-out: Anti-proliferative activity (μM) of NMS-873. It counts as cell-based.
The next assay relates to LoxIMVI (BRAFV600E). Put plainly: Anti-proliferative activity, LoxIMVI. The assay is classed as cell-based. The settings on record: Homo sapiens, LOX IMVI, skin cancer, read-out: Anti-proliferative activity (μM) of NMS-873.
For another assay, the system named is MDA-MB-468. Put plainly: Anti-proliferative activity, MDA-MB-468. It counts as cell-based. The settings on record: Homo sapiens, Breast, read-out: Anti-proliferative activity (μM) of NMS-873.
A further assay concerns A375 (BRAFV600E). Put plainly: Anti-proliferative activity, A375. The settings on record: Homo sapiens, A-375, skin cancer, read-out: Anti-proliferative activity (μM) of NMS-873. It counts as cell-based.
In a further assay the test system is MCF-7. As to the kind of experiment: Anti-proliferative activity, MCF-7. It counts as cell-based. The settings on record: Homo sapiens, MCF7, Breast, read-out: Anti-proliferative activity (μM) of NMS-873.
Another assay has as its system SW620. Put plainly: Anti-proliferative activity, SW620. The assay is classed as cell-based. The settings on record: Homo sapiens, SW-620, Colon, read-out: Anti-proliferative activity (μM) of NMS-873.
Another assay has as its system CCRF-CEM. As to the kind of experiment: Anti-proliferative activity, CCRF-CEM. The assay is classed as cell-based. The settings on record: Homo sapiens, blood cancer, read-out: Anti-proliferative activity (μM) of NMS-873.
In the next assay the test system is A549. Put plainly: Anti-proliferative activity, A549. It counts as cell-based. The settings on record: Homo sapiens, Lung Cancer, read-out: Anti-proliferative activity (μM) of NMS-873.
For the next assay, the system named is RPMI8226. As to the kind of experiment: Anti-proliferative activity, RPMI8226. It counts as cell-based. The settings on record: Homo sapiens, RPMI-8226, Multiple Myeloma, read-out: Anti-proliferative activity (μM) of NMS-873.
For a further assay, the system named is HCT116. As to the kind of experiment: Anti-proliferative activity, HCT116. The settings on record: Homo sapiens, HCT-116, Colon, read-out: Anti-proliferative activity (μM) of NMS-873. It counts as cell-based.
The test system of the next assay is MDA-MB-231. Put plainly: Anti-proliferative activity, MDA-MB-231. The settings on record: Homo sapiens, Breast, read-out: Anti-proliferative activity (μM) of NMS-873. The assay is classed as cell-based.
Another assay deals with PANC-1. Put plainly: Anti-proliferative activity, PANC-1. It counts as cell-based. The settings on record: Homo sapiens, Pancreatic cancers, read-out: Anti-proliferative activity (μM) of NMS-873.
In another assay the test system is Molt4. Put plainly: Anti-proliferative activity, Molt4. The assay is classed as cell-based. The settings on record: Homo sapiens, MOLT-4, blood cancer, read-out: Anti-proliferative activity (μM) of NMS-873.
Setting [1] is: read-out: P97 Biomolgreen, IC50.

Chain of P97 (P55072 whole entry): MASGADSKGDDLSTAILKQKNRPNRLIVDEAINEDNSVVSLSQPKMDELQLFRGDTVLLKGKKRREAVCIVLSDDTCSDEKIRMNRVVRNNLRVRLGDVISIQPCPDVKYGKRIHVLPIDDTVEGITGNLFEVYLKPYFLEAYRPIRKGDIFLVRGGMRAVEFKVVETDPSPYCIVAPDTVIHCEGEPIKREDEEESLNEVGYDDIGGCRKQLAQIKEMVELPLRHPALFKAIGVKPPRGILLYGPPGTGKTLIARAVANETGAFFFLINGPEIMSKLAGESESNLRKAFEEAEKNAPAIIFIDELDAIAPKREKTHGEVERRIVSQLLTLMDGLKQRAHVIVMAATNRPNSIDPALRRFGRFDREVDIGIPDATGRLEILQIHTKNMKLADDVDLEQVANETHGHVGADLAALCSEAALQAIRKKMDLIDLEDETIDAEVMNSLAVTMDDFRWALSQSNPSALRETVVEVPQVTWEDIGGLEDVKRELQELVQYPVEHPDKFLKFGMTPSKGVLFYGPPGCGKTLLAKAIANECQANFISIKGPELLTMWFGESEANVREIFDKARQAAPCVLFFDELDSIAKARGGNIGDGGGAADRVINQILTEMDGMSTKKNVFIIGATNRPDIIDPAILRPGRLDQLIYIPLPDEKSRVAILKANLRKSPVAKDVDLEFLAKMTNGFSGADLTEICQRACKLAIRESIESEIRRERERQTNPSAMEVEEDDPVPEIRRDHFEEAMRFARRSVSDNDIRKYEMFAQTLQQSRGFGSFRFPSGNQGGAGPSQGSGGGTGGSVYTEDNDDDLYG
Description for A549: (§1) Cells were seeded on a 384-well solid white plate (5,000 cells/well). Cells were transfected with luciferase siRNA or p97 siRNA (10 nM) for 48 h or treated with compounds for the indicated amount of time. Caspase-3/7 Glo, caspase-6 Glo, caspase-8 Glo, or caspase-9 Glo (Promega) was added into each well and mixed by shaking at 500 rpm for 1 min. Luminescence signal was determined after incubation at room temperature for 1 h. Cellular viability was determined with Cell-Titer-Glo reagent (Promega). […] IC50 values were calculated from fitting the percentage of luminescence signal normalized to DMSO treated cells).
Description for BxPC-3: as §1
Description for HCT116: (§2) Cells were seeded on a 384-well solid white plate (5,000 cells/well). Cells were transfected with luciferase siRNA or p97 siRNA (10 nM) for 48 h or treated with compounds for the indicated amount of time. […] Cellular viability was determined with Cell-Titer-Glo reagent (Promega). […] IC50 values were calculated from fitting the percentage of luminescence signal normalized to DMSO treated cells).
Description for HCT15: as §2
Description for LoxIMVI (BRAFV600E): as §1
Description for MCF-7: as §2
Description for MDA-MB-231: as §2
Description for MDA-MB-468: as §2
Description for PANC-1: as §1
Description for SKMel2 (NRASQ61R): as §1
Description for SKMel5 (BRAFV600E): as §1
Description for WM3918 (BRAF/NRAS WT): as §1

As usually defined, the pIC50 is −log10 of the IC50, conventionally taken in molar units. In turn, `Cc1cc(OCc2nnc(SC3C=CCCC3)n2-c2cccnc2)ccc1C#CCOC(=O)NC1CCN(C)CC1` (stereo not shown) [Compound 75] gave a pIC50 at P97 of 7.60.

As to `[2H]C1([2H])C([2H])([2H])C([2H])([2H])C([2H])(Sc2nnc(COc3ccc(C#CC(C)OC(=O)NCCN4CCN(C(C)C)CC4)c(C)c3)n2-c2cccnc2)C1([2H])[2H]` (stereo not shown) [Compound 42], the negative-log IC50 (pIC50) at P97 is 6.89.

`N#Cc1ccc(C#CCOCc2nnc(SC3CCCC3)n2-c2cccnc2)cc1` [Compound 56]: at P97, the negative-log IC50 (pIC50) was below 5.17.

Take `CCC(=O)NCC#Cc1ccc(OCc2nnc(SCC3CO3)n2-c2cccnc2)cc1C` (stereo not shown) [Compound 129]: the “P97 Biomolgreen; 200 μM ATP; IC50 (μM)” value at P97 is “Not active”.

`Cc1cc(OCc2nnc(SC3C=CCCC3)n2-c2cccnc2)ccc1C#CCOC(=O)NCCN1CCN(C(C)C)CC1` (stereo not shown) [Compound 71]: at P97, the pIC50 is 7.59.

In the case of `Cc1cc(OCc2nnc(SC3C=CCCC3)n2-c2cccnc2)ccc1C#CCOC1CCCCO1` (stereo not shown) [Compound 57], the pIC50 at P97 (setting [1]) was 6.96.

Compound `Cc1cc(OCc2nnc(SC3CCCC3)n2-c2cccnc2)ccc1C#CCOC(=O)NCCNC(=O)CC1C2CC3CC(C2)CC1C3` (stereo not shown) [Compound 110] had a pIC50 against P97 of 7.22.

In the case of `Cc1cc(OCc2nnc(SC3CCCC3)n2-c2cccnc2)ccc1C#CCNC(=O)OC(C)(C)C` [Compound 49], on P97, the pIC50 was 6.59.

Turning to `Cc1cc(OCc2nnc(SC3CCCC3)n2-c2cccnc2)ccc1-c1ccc(S(C)(=O)=O)cc1` [NMS-873], the IC50 was 2.5 µM with BxPC-3; 3.04 µM in the assay with SKMel2 (NRASQ61R); 2.1 µM with HCT15; 1.95 µM in the assay with SKMel5 (BRAFV600E); 2.35 µM with WM3918 (BRAF/NRAS WT); 0.65 µM in the assay on LoxIMVI (BRAFV600E). The IC50 in the assay with MDA-MB-468 worked out at 1.36 µM; in the assay on A375 (BRAFV600E), 2.27 µM; in the assay with MCF-7, 3.07 µM; with SW620 it was 2.6 µM; with CCRF-CEM, 0.1 µM; in the assay with A549, 2.2 µM. Also, the IC50 was 0.08 µM in the assay on RPMI8226; 1.2 µM with HCT116; 2.95 µM in the assay with MDA-MB-231; 5 µM in the assay with PANC-1; 0.92 µM in the assay on Molt4.

As for `Cc1cc(OCc2nnc(SC3C=CCCC3)n2-c2cccnc2)ccc1C#CCOC(=O)N1CCN(C)CC1` (stereo not shown) [Compound 108], the pIC50 against P97 is 7.82.

Consider `[2H]C1([2H])C([2H])([2H])C([2H])([2H])C([2H])(Sc2nnc(COc3ccc(C#CCNC4CCN(C)CC4)c(C)c3)n2-c2cccnc2)C1([2H])[2H]` [Compound 96], for which, on P97, the pIC50 is 7.17.

In the case of `[2H]C1([2H])C([2H])([2H])C([2H])([2H])C([2H])(Sc2nnc(COc3ccc(C#CCO)c(C)c3)n2-c2cccnc2)C1([2H])[2H]` [Compound 117], the negative-log IC50 (pIC50) on P97 was 6.00.

`CN1CCC(NC(=O)OCC#Cc2ccc(OCc3nnc(SC4C=CCCC4)n3-c3cccnc3)cc2C#N)CC1` (stereo not shown) [Compound 121]: at P97 (setting [1]), the pIC50 is 7.52.

Turning to `C#Cc1ccc(OCc2nnc(CC3CC3)n2-c2cccnc2)cc1C` [Compound 55], at P97 (setting [1]), the negative-log IC50 (pIC50) was 5.28.

In the case of `OCC#Cc1ccc(OCc2nnc(SC3C=CCCC3)n2-c2cccnc2)cc1` (stereo not shown) [Compound 91], the negative logarithm of the IC50 (pIC50) on P97 (setting [1]) is 7.49.

As for `Cc1cc(OCc2nnc(SC3CCCC3)n2-c2cccnc2)ccc1C#CCOC(=O)NCCOCCNC(=O)CC1C2CC3CC(C2)CC1C3` (stereo not shown) [Compound 111], on P97, the pIC50 is 7.52.

On to `CCC(=O)NCC#Cc1ccc(OCc2nnc(SC[C@@]3(C)CO3)n2-c2cccnc2)cc1C` [Compound 130], for which, on P97, the “P97 Biomolgreen; 200 μM ATP; IC50 (μM)” value is “Not active”.

With `COC(C)NCC#Cc1ccc(OCc2nnc(SC3CCCC3)n2-c2cccnc2)cc1C` (stereo not shown) [Compound 12], the pIC50 against P97 is 7.54.
